# Tested on: A431 cells
# Test: Inhibition of A431 cells by 225-CDR peptides (3H-thymidine)
# Assay type: cell-based, human
# Details: 72 hours, FIG. 5
# Description: These peptides were dissolved in PBS at a concentration of 1 mg/ml. A431 cells were plated at 1000 cells per well in 96 well plates. Peptides were added at various concentrations. […] Plates were incubated for 72 hours at 37° C. and pulsed overnight with ^3H-thymidine. Cells were harvested and counted in a liquid scintillation counter. Percent inhibition is defined as the decrease in 3-H thymidine incorporation of antibody or peptide treated cells compared to cells grown in the absence of antibody or peptide.
row,Substance,inhibition of A431 cells (3H-thymidine incorporation)
1,GVIWSGGNTDYNTPFTSR [heavy chain CDR-2],inhibited
2,NYGVH [heavy chain CDR-1],inhibited
